We go through 12 compounds from patent US20240124434A1, “ATF6 INHIBITORS AND USES THEREOF” (Altos Labs, Inc., priority 2018, published 2024).

In this assay the test system is ATF6. The experiment in a line: ERSE ATF6-luciferase reporter assay (thapsigargin-induced ER stress). It counts as cell-based, human. How it is done: Human bone osteosarcoma (U2-OS) cells were obtained from the American Type Culture Collection (ATCC HTB-96, ATCC Manassas, VA) and were cultured with growing medium containing Dulbecco's Modified Eagle's Medium (DMEM) (Cat. No.:SH30023.02, HyClone) supplemented with fetal bovine serum (FBS) 10% (Cat. No.: 16000044, Gibco) and 1% penicillin-streptomycin antibiotic cocktail (Cat. No.: SV30010, Hyclone).
Cignal Lenti ATF6 luc reporter (Qiagen #CLS-6031L) was used to produce a stable cell line in U2-OS cells. […] The number of response elements as well as the intervening sequence between response elements has been experimentally optimized to maximize the signal to noise ratio.
Compounds were prepared as 10 mM stock solutions and stored at −80° C.
U2-OS ATF6 luc reporter cells were thawed 3-4 days and split once prior to assays. […] At the day of experiment, cells were pre-treated for 30 min with 50 μL growing medium containing either vehicle (dimethyl sulfoxide (DMSO)) (Cat. No.: D2650, Sigma-Aldrich) or 1 μM test compound. After the pre-incubation time, 50 μL of a solution containing 0.2 μM thapsigargin (Tg)(an ER stress inducer) was added to respective wells. This Tg solution also contained vehicle or test compounds at 1 μM. The final concentration of DMSO in each well was kept at 0.3%. Plates were incubated for 8 hr in humidified chambers.
Finally, after 8 hr, plates were cooled to room temperature for 10 min prior to luciferase assays. Luciferase reactions were performed using Luciferase Assay System (Cat. No.: E4550, Promega). Briefly, each well was washed with 100 μl of PBS1X and then 20 μl of lysis reagent were added into each well. Plates were shaken for 10 min, then 50 μl of Luciferase Assay Reagent were added to each well and luminescence was read with an integration time of 1 s and a gain of 110 in a Synergy 4 Microplate reader.
For the assessment of the half-maximal inhibitory concentration (IC50) for selected compounds, dose-response assays were performed. Compounds were serially diluted using DMSO starting at 30 μM until 1 nM. The assays were run as described above.

Where [1] appears, read: Homo sapiens, U2OS, 8 h, 1 μM test compound, thapsigargin-induced ER stress, U2-OS ATF6 luc reporter cells, 8 hr, read-out: Inh. ATF6-Luc @ 1 μM [%].
[2] abbreviates: Homo sapiens, U2OS, dose-response 30 μM to 1 nM, thapsigargin-induced ER stress, U2-OS ATF6 luc reporter cells, read-out: IC50 ATF6-Luc reporter.

Where two headings read alike, the source gives them in different places.

As usually defined, the IC50 is the midpoint of a concentration-inhibition curve. `O=C(Nc1cnn(Cc2c(Cl)cccc2Cl)c1)c1cc(-c2ccccn2)on1` [Compound 146, N-(1-(2,6-dichlorobenzyl)-1H-pyrazol-4-yl)-5-(pyridin-2-yl)isoxazole-3-carboxamide]: the inhibition at 1 µM under setting [1] was less than 25%. Moreover, the IC50 under setting [2] is greater than 10 µM.

Take `C[C@@H](c1ccc(C(F)(F)F)cc1C(F)(F)F)n1cc(NC(=O)c2nnc(-c3cnccn3)s2)cn1` [Compound 153]: the inhibition at 1 µM (Homo sapiens, U2OS, 8 h, read-out: Inh. ATF6-Luc @ 1 μM [%], 1 μM test compound, thapsigargin-induced ER stress, U2-OS ATF6 luc reporter cells, 8 hr) was less than 25%. Moreover, the IC50 (Homo sapiens, U2OS, read-out: IC50 ATF6-Luc reporter [μM], dose-response 30 μM to 1 nM, thapsigargin-induced ER stress, U2-OS ATF6 luc reporter cells) was greater than 10 µM.

As for `C[C@H](c1ccc(C(F)(F)F)cc1C(F)(F)F)n1cc(NC(=O)c2cnc(-c3ccccn3)o2)cn1` [Compound 127, (R)N-(1-(1-(2,4-bis(trifluoromethyl)phenyl)ethyl)-1H-pyrazol-4-yl)-2-(pyridin-2-yl)oxazole-5-carboxamide], the inhibition at 1 µM under setting [1] is less than 25%. In addition, under setting [2], the half-maximal inhibitory concentration (IC50) is greater than 10 µM.

Regarding `CC(c1ccc(C(F)(F)F)cc1C(F)(F)F)n1cc(NC(=O)c2cc(-c3ccccn3)n(C)n2)cn1` (stereo not drawn) [Compound 113, N-(1-(1-(2,4-bis(trifluoromethyl)phenyl)ethyl)-1H-pyrazol-4-yl)-1-methyl-5-(pyridin-2-yl)-1H-pyrazole-3-carboxamide], the inhibition at 1 µM under setting [1] is less than 25%. Also, the IC50 under setting [2] was greater than 10 µM.

Take `CC(C)(O)c1cc(C(=O)Nc2cnn(Cc3ccc(C(F)(F)F)cc3C(F)(F)F)c2)no1` [Compound 2, N-(1-(2,4-bis(trifluoromethyl)benzyl)-1H-pyrazol-4-yl)-5-(2-hydroxypropan-2-yl)isoxazole-3-carboxamide]: the inhibition at 1 µM under setting [1] is less than 25%. Also, under setting [2], the IC50 is greater than 10 µM.

In the case of `C[C@@H](c1ccc(C(F)(F)F)cc1C(F)(F)F)n1cc(NC(=O)c2ccccn2)cn1` [Compound 139, (S)—N-(1-(1-(2,4-bis(trifluoromethyl)phenyl)ethyl)-1H-pyrazol-4-yl)picolinamide], under setting [1], the inhibition at 1 µM was less than 25%. Besides, the IC50 under setting [2] is greater than 10 µM.

Regarding `CC(c1ccc(C(F)(F)F)cc1C(F)(F)F)n1cc(NC(=O)c2cc(-c3ccco3)on2)cn1` (single isomer, unassigned) [“Enantiomer B” of Example S6, N-(1-(1-(2,4-bis(trifluoromethyl)phenyl)ethyl)-1H-pyrazol-4-yl)-5-(furan-2-yl)isoxazole-3-carboxamide], the IC50 was greater than 10 µM. Further, the “Inh. ATF6-Luc @ 1 μM [%]” value (8 h, 1 µM) was “+ (+ refers to <25% inhibition at 1 μM)”.

For `O=C(Nc1cnn(Cc2ccc(C(F)(F)F)cc2C(F)(F)F)c1)c1cncc(-c2ccccc2)c1` [Compound 21, N-(1-(2,4-bis(trifluoromethyl)benzyl)-1H-pyrazol-4-yl)-5-phenylnicotinamide], the inhibition at 1 µM under setting [1] is less than 25%. The IC50 under setting [2] was greater than 10 µM.

Take `O=C(Nc1cnn(Cc2c(Cl)cccc2Cl)c1)c1cc(-c2ccco2)on1` [Compound 24, N-(1-(2,6-dichlorobenzyl)-1H-pyrazol-4-yl)-5-(furan-2-yl) isoxazole-3-carboxamide]: under setting [1], the inhibition at 1 µM is less than 25%. Moreover, the IC50 under setting [2] is greater than 10 µM.

Take `C[C@@H](c1ccc(C(F)(F)F)cc1C(F)(F)F)n1cc(NC(=O)c2cc(-c3ccccn3)[nH]n2)cn1` [Compound 120, (S)—N-(1-(1-(2,4-bis(trifluoromethyl)phenyl)ethyl)-1H-pyrazol-4-yl)-5-(pyridin-2-yl)-1H-pyrazole-3-carboxamide]: under setting [1], the inhibition at 1 µM was less than 25%. For the same compound, the IC50 under setting [2] is greater than 10 µM.

On to Ceapin-A8 [reference compound], for which the “Inh. ATF6-Luc @ 1 μM [%]” value (1 μM test compound, thapsigargin-induced ER stress, U2-OS ATF6 luc reporter cells, 8 hr) is given as “+ (+ refers to <25% inhibition at 1 μM)”. The half-maximal inhibitory concentration (IC50) (dose-response 30 μM to 1 nM, thapsigargin-induced ER stress, U2-OS ATF6 luc reporter cells, read-out: IC50 ATF6-Luc reporter) is greater than 10 µM.

As to `C[C@@H](c1ccc(C(F)(F)F)cc1C(F)(F)F)n1cc(NC(=O)c2cc(-c3cccnc3)on2)cn1` [Compound 37, (S)-N-(1-(1-(2,4-bis(trifluoromethyl)phenyl)ethyl)-1H-pyrazol-4-yl)-5-(pyridin-3-yl)isoxazole-3-carboxamide], the inhibition at 1 µM under setting [1] was less than 25%. The IC50 under setting [2] is greater than 10 µM.
